ChEMBL document CHEMBL1155741, “Ellagitannins and hexahydroxydiphenoyl esters as inhibitors of vertebrate squalene epoxidase” (J Nat Prod, 2001)

target: Squalene epoxidase (Sus scrofa, UniProt A7L861); test: Inhibition of pig squalene epoxidase
Sequence (A7L861 whole entry): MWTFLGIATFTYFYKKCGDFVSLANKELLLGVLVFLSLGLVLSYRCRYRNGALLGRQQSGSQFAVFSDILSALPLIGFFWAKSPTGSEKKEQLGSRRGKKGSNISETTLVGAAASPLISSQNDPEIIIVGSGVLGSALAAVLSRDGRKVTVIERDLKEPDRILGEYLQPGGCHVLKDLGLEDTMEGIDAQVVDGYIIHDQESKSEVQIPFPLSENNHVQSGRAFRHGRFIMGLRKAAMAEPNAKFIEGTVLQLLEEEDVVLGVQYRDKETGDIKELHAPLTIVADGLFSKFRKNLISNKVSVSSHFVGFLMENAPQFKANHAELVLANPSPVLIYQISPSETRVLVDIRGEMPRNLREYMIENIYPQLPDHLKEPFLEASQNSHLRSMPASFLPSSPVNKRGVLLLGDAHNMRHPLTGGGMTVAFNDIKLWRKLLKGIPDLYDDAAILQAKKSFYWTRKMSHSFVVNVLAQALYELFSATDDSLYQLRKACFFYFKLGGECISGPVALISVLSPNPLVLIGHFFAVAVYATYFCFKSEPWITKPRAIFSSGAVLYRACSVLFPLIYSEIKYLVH

| IC50 [µM] | Structure (SMILES) |
| --- | --- |
| 4 | CC(C)=CCC/C(C)=C/CC/C(C)=C/CC/C=C(\C)CC/C=C(\C)CCCO [TRISNORSQUALENE ALCOHOL] |
| 2 | CC(C)=CCC/C(C)=C/CC/C(C)=C/CC/C=C(\C)CC/C=C(\C)CCCNC1CC1 [TRISNORSQUALENE CYCLOPROPYLAMINE] |

target: T1, Squalene monooxygenase (Rattus norvegicus, UniProt P52020); test: Inhibition of rat squalene epoxidase
T1 sequence (P52020 whole entry): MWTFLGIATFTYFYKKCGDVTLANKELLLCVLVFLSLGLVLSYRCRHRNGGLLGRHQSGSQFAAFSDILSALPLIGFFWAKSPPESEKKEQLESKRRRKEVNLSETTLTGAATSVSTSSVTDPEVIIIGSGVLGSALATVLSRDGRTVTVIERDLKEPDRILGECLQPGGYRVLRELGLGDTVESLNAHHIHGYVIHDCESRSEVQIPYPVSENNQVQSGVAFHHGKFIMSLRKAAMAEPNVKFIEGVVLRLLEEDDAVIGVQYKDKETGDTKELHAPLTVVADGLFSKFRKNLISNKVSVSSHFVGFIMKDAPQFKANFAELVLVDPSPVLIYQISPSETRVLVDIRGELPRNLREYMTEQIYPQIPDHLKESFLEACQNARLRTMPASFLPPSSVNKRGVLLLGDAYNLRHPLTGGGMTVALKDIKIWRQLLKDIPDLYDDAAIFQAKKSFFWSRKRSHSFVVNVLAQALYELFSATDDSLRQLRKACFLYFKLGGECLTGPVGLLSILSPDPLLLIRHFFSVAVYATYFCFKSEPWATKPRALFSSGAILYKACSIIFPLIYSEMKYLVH

| IC50 [µM] | Structure (SMILES) |
| --- | --- |
| 0.54 | O=C(O[C@@H]1[C@@H](c2c(O)cc(O)c3c2O[C@H](c2ccc(O)c(O)c2)[C@H](OC(=O)c2cc(O)c(O)c(O)c2)C3)c2c(O)cc(O)cc2O[C@@H]1c1ccc(O)c(O)c1)c1cc(O)c(O)c(O)c1 |
| 0.63 | O=C(OC[C@H]1O[C@@H](OC(=O)c2cc(O)c(O)c(O)c2)[C@H](OC(=O)c2cc(O)c(O)c(O)c2)[C@@H](O)[C@@H]1O)c1cc(O)c(O)c(O)c1 |
| 0.13 | O=C(O[C@@H]1Cc2c(O)cc(O)cc2O[C@@H]1c1cc(O)c(O)c(O)c1-c1c([C@H]2Oc3cc(O)cc(O)c3C[C@H]2OC(=O)c2cc(O)c(O)c(O)c2)cc(O)c(O)c1O)c1cc(O)c(O)c(O)c1 [THEASINENSIN A] |
| 5.4 | CC(C)=CCC/C(C)=C/CC/C(C)=C/CC/C=C(\C)CC/C=C(\C)CCC=C(F)F [TRISNORSQUALENE DIFLUOROMETHYLIDENE] |

target: T1, Squalene monooxygenase; test: Inhibition of C-terminal hexahistidine-tagged rat recombinant squalene epoxidase without N-terminal putative membrane domain expressed in Escherichia coli

| IC50 [µM] | Structure (SMILES) |
| --- | --- |
| 2.5 | CCCCCCCCCCCCCCCCOC(=O)c1cc(O)c(O)c(O)c1-c1c(C(=O)OCCCCCCCCCCCCCCCC)cc(O)c(O)c1O |
| 1.3 | CCCCCCCCCCCCOC(=O)c1cc(O)c(O)c(O)c1-c1c(C(=O)OCCCCCCCCCCCC)cc(O)c(O)c1O |
| 30 | O=C1OC[C@H]2OC(=O)c3cc(O)c(O)c(O)c3-c3c(O)c(O)c(O)c4c3C(=O)O[C@H]([C@H]3OC(=O)c5c-4c(O)c(O)c(O)c5[C@H]3O)[C@@H]2OC(=O)c2cc(O)c(O)c(O)c2-c2c1cc(O)c(O)c2O [CASTALAGIN] |
| 3.2 | O=C(O)C[C@@H]1C(=O)O[C@H]2[C@@H]3OC(=O)c4cc(O)c(O)c(O)c4-c4c(cc(O)c(O)c4O)C(=O)OC[C@H]2O[C@@H](OC(=O)c2cc(O)c(O)c(O)c2)[C@@H]3OC(=O)c2cc(O)c(O)c3c2[C@H]1[C@H](O)C(=O)O3 [CHEBULAGIC ACID] |
| 4 | O=C(O[C@@H]1O[C@@H]2COC(=O)c3cc(O)c(O)c(O)c3-c3c(cc(O)c(O)c3O)C(=O)O[C@H]([C@H]1O)[C@@H]2O)c1cc(O)c(O)c(O)c1 [CORILAGIN] |
| 2 | O=c1oc2c(O)c(O)cc3c(=O)oc4c(O)c(O)cc1c4c23 [ELLAGIC ACID] |
| 4.2 | CCOC(=O)c1cc(O)c(O)c(O)c1 [ETHYLGALLATE] |
| 1.6 | O=C(O[C@@H]1O[C@@H]2COC(=O)c3cc(O)c(O)c(O)c3-c3c(cc(O)c(O)c3O)C(=O)O[C@H]2[C@H](OC(=O)c2cc(O)c(O)c(O)c2)[C@H]1OC(=O)c1cc(O)c(O)c(O)c1)c1cc(O)c(O)c(O)c1 [EUGENIIN] |
| 10 | O=C1O[C@H]2[C@H](O)[C@@H](OC(=O)c3cc(O)c(O)c4c3[C@@H]3C1=CC(=O)C(O)(O)C3(O)O4)[C@H](OC(=O)c1cc(O)c(O)c(O)c1)O[C@@H]2CO (some centres undefined) [FUROSIN] |
| 4.1 | O=C1O[C@H]2[C@@H]3OC(=O)c4cc(O)c(O)c(O)c4-c4c(cc(O)c(O)c4O)C(=O)OC[C@H]2O[C@@H](OC(=O)c2cc(O)c(O)c(O)c2)[C@@H]3OC(=O)c2cc(O)c(O)c3c2[C@@H]2C1=CC(=O)[C@](O)(O3)C2(O)O [GERANIIN] |
| 0.59 | CCCCCCCCCCCCCCCCOC(=O)c1cc(O)c(O)c(O)c1 [HEXADECYL GALLATE] |
| 8 | O=C(O[C@@H]1O[C@@H]2COC(=O)c3cc(O)c(O)c(O)c3-c3c(cc(Oc4c(C(=O)O)cc(O)c(O)c4O)c(O)c3O)C(=O)O[C@H]([C@H]1O)[C@@H]2O)c1cc(O)c(O)c(O)c1 [MALLOTINIC ACID] |
| 8 | O=C1O[C@H]2[C@@H]3OC(=O)c4cc(Oc5c(C(=O)O)cc(O)c(O)c5O)c(O)c(O)c4-c4c(cc(O)c(O)c4O)C(=O)OC[C@H]2O[C@@H](OC(=O)c2cc(O)c(O)c(O)c2)[C@@H]3OC(=O)c2cc(O)c(O)c3c2[C@@H]2C1=CC(=O)[C@](O)(O3)C2(O)O [MALLOTUSINIC ACID] |
| 100 | O=C(OC[C@H]1O[C@@H](OC(=O)c2cc(O)c(O)c(O)c2)[C@H](OC(=O)c2cc(O)c(O)c(O)c2)[C@@H](OC(=O)c2cc(O)c(O)c(O)c2)[C@@H]1OC(=O)c1cc(O)c(O)c(O)c1Oc1cc2c(c(O)c1O)-c1c(cc(O)c(O)c1O)C(=O)O[C@H]1[C@H](OC(=O)c3cc(O)c(O)c(O)c3)[C@@H](OC(=O)c3cc(O)c(O)c(O)c3)[C@H](OC(=O)c3cc(O)c(O)c(O)c3)O[C@@H]1COC2=O)c1cc(O)c(O)c(O)c1 [PHYLLYRAEOIDIN] |

Further lines, the compound ahead of its results:

| Structure (SMILES) | IC50 [µM] |
| --- | --- |
| O=C(O[C@@H]1O[C@@H]2COC(=O)c3cc(O)c(O)c(O)c3-c3c(O)c(O)c(O)c(Oc4cc(C(=O)O[C@@H]5O[C@@H]6COC(=O)c7cc(O)c(O)c(O)c7-c7c(cc(O)c(O)c7O)C(=O)O[C@H]6[C@@H]6OC(=O)c7cc(O)c(O)c(O)c7-c7cc(O)c(O)c(O)c7C(=O)O[C@@H]56)cc(O)c4O)c3C(=O)O[C@H]2[C@@H]2OC(=O)c3cc(O)c(O)c(O)c3-c3c(cc(O)c(O)c3O)C(=O)O[C@@H]12)c1cc(O)c(O)c(O)c1 | 12 |
| COC(=O)c1cc(O)c(O)c(O)c1-c1c(C(=O)OC)cc(O)c(O)c1O | 16.4 |
| CCCCCCCCCCCCCCCCCCOC(=O)c1cc(O)c(O)c(O)c1-c1c(C(=O)OCCCCCCCCCCCCCCCCCC)cc(O)c(O)c1O | 47 |
| CCCCCCCCCCCCCCOC(=O)c1cc(O)c(O)c(O)c1-c1c(C(=O)OCCCCCCCCCCCCCC)cc(O)c(O)c1O | 1.5 |
| O=C(O[C@@H]1O[C@@H]2COC(=O)c3cc(O)c(O)c(O)c3-c3c(cc(O)c(O)c3O)C(=O)O[C@H]2[C@@H]2OC(=O)c3cc(O)c(O)c(O)c3-c3c(cc(O)c(O)c3O)C(=O)O[C@@H]12)c1cc(O)c(O)c(O)c1 | 7 |
| CCCCCCCCCCOC(=O)c1cc(O)c(O)c(O)c1-c1c(C(=O)OCCCCCCCCCC)cc(O)c(O)c1O | 1.1 |
| O=C1O[C@H]2[C@H](O)[C@@H](CO)OC(O)[C@@H]2OC(=O)c2cc(O)c(O)c(O)c2-c2c1cc(O)c(O)c2O (some centres undefined) | 32 |
| CCCCOC(=O)c1cc(O)c(O)c(O)c1-c1c(C(=O)OCCCC)cc(O)c(O)c1O | 7.9 |
| CCCCCCOC(=O)c1cc(O)c(O)c(O)c1-c1c(C(=O)OCCCCCC)cc(O)c(O)c1O | 0.93 |
| CCCCCCCCOC(=O)c1cc(O)c(O)c(O)c1-c1c(C(=O)OCCCCCCCC)cc(O)c(O)c1O | 0.83 |
| CCOC(=O)c1cc(O)c(O)c(O)c1-c1c(C(=O)OCC)cc(O)c(O)c1O | 13.3 |
| O=C(O[C@@H]1COC(=O)c2cc(O)c(O)c(O)c2-c2c(cc(O)c(O)c2O)C(=O)O[C@H]1[C@@H]1OC(=O)c2cc(O)c(O)c(O)c2-c2c(O)c(O)c(O)c3c2C(=O)O[C@H]1[C@@H]3O)c1cc(O)c(O)c(O)c1 [CASUARININ] | 34 |
| O=C(O)C[C@H]1C(=O)O[C@H]2[C@H](OC(=O)c3cc(O)c(O)c(O)c3)[C@@H](OC(=O)c3cc(O)c(O)c4c3[C@H]1[C@H](O)C(=O)O4)[C@H](OC(=O)c1cc(O)c(O)c(O)c1)O[C@@H]2COC(=O)c1cc(O)c(O)c(O)c1 [CHEBULINIC ACID] | 12 |
| O=C(O)c1cc(O)c(O)c(O)c1 [GALLIC ACID] | 73 |
| CCCCCCCCOC(=O)c1cc(O)c(O)c(O)c1 [OCTYL_GALLATE] | 0.83 |
| O=C1OC[C@H]2OC(O)[C@@H]3OC(=O)c4cc(O)c(O)c(O)c4-c4c(cc(O)c(O)c4O)C(=O)O[C@H]3[C@@H]2OC(=O)c2cc(O)c(O)c(O)c2-c2c1cc(O)c(O)c2O (some centres undefined) [PEDUNCULAGIN] | 2 |
| O=C(OC[C@H]1O[C@@H](OC(=O)c2cc(O)c(O)c(O)c2)[C@H](OC(=O)c2cc(O)c(O)c(O)c2)[C@@H](OC(=O)c2cc(O)c(O)c(O)c2)[C@@H]1OC(=O)c1cc(O)c(O)c(O)c1)c1cc(O)c(O)c(O)c1 [PENTAGALLOYL GLUCOSE] | 0.47 |
| O=C1O[C@@H]2[C@@H](OC(=O)c3cc(O)c(O)c(O)c3-c3c1cc(O)c(O)c3O)[C@H](O)O[C@@H]1COC(=O)c3cc(O)c(O)c(O)c3-c3c(O)c(O)c4oc(=O)c5c(c(O)c(O)c6oc(=O)c3c4c65)-c3c(cc(O)c(O)c3O)C(=O)O[C@@H]21 [PUNICALAGIN] | 40 |
| O=C1OC[C@H]2O[C@@H](O)[C@H](O)[C@@H](O)[C@@H]2OC(=O)c2cc(O)c(O)c(O)c2-c2c(O)c(O)c3oc(=O)c4c(c(O)c(O)c5oc(=O)c2c3c54)-c2c1cc(O)c(O)c2O [PUNICALIN] | 20 |
